What all share (test): inhibition of tumour cell growth, NCI panel, 48 h
Assay [1] has as its system Hs-578T.
The test system of assay [2] is NCI-H23.
In assay [3] the test system is OVCAR-4.
Assay [4] concerns Malme-3M.
Assay [5] relates to SN12C.
In assay [6] the test system is NCI-H522.
In assay [7] the test system is UO-31.
The test system of assay [8] is MDA-MB-231.
Assay [9] deals with OVCAR-5.
Assay [10] concerns HCT-15.
Assay [11] deals with SF-295.
Assay [12] has as its system HOP-92.
The test system of assay [13] is UACC-257.
Assay [14] deals with IGROV-1.
In assay [15] the test system is T47D.
Assay [16] concerns MDA-MB-435.
Assay [17] has as its system HL-60.
Assay [18] deals with DU-145.
In assay [19] the test system is NCI-H460.

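96-well plates; 48 h exposure; 5 concentrations. Endpoints by linear interpolation between flanking doses. Not reached: highest tested concentration assigned. At the GI50, growth is halved.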 The source made the active and inactive calls. Rule as the data show it: active = GI50 up to about 1.1 µM and inactive = higher.

Regarding `COP(=O)(OC)C1=c2c(C)noc2=C2C=COC2C1=O` (configuration not stated), the GI50 in assay [1] was 45.9 µM (inactive); in assay [2], > 100 µM (inactive); in [3] it was > 100 µM (inactive); in assay [4] it was > 100 µM (inactive); in [5] it was > 100 µM (inactive); in [6] it was > 100 µM (inactive). The GI50 was > 100 µM (inactive) in assay [7]; 56.1 µM (inactive) in assay [8]; > 100 µM (inactive) in [9]; over 100 µM in assay [10]; > 100 µM (inactive) in assay [11]; 63.4 µM (inactive) in assay [12]. The GI50 in [13] was > 100 µM (inactive); in [14], > 100 µM (inactive); in [15] it was > 10 µM (inactive); in assay [16], > 100 µM (inactive); in assay [17] it was > 100 µM (inactive); in assay [18], > 100 µM (inactive).
As for `N#CC(c1ccccc1)N(CCc1ccccc1)C(=O)Oc1ccccc1` (configuration not stated), the GI50 in [1] was 44.8 µM (inactive); in [2], > 100 µM (inactive); in assay [3] it was > 100 µM (inactive); in [4] it was > 100 µM (inactive); in [5], > 100 µM (inactive); in [6], > 100 µM (inactive). For the same compound, the GI50 was > 100 µM (inactive) in [7]; > 100 µM (inactive) in assay [8]; > 100 µM (inactive) in [9]; over 100 µM in assay [10]; > 100 µM (inactive) in assay [11]; 29.5 µM (inactive) in assay [12]. Further, the GI50 in assay [13], in assay [14], in [15], in assay [16], in [17] and in assay [18] was > 100 µM (inactive) throughout.
For `COC(=O)CCc1ccc2c(c1)C(=O)CC2`, the GI50 in assay [1], in [2], in assay [19], in assay [3], in assay [4] and in assay [6] was > 100 µM (inactive) throughout. The GI50 is > 100 µM (inactive) in assay [7]; > 100 µM (inactive) in assay [8]; > 100 µM (inactive) in assay [9]; over 100 µM in [10]; > 100 µM (inactive) in assay [11]; > 100 µM (inactive) in assay [12]. For the same compound, the GI50 in [13], in assay [14], in assay [15], in assay [16], in assay [17] and in assay [18] was > 100 µM (inactive) each time.
On to `COc1ccc(NC2=NCCO2)c2c1CCCC2`, for which the GI50 in assay [1] was 25.9 µM (inactive); in [2], 25.5 µM (inactive); in [19], 34.5 µM (inactive); in assay [3], 58.7 µM (inactive); in assay [4], 34.1 µM (inactive); in assay [6] it was 31.8 µM (inactive). Also, the GI50 in assay [7] is 53.5 µM (inactive); in [8], 43.8 µM (inactive); in assay [9], 64.9 µM (inactive); in [10] it was 31.6 µM; in assay [11], 27.3 µM (inactive); in [12] it was 19.8 µM (inactive). In addition, the GI50 in assay [13] was 26.3 µM (inactive); in assay [14], 22.8 µM (inactive); in assay [15], 35.2 µM (inactive); in assay [16] it was 29.6 µM (inactive); in assay [17], 15.5 µM (inactive); in [18] it was 51.2 µM (inactive).

These data come from ChEMBL document CHEMBL1201862, “PubChem BioAssay data set” (2004).
